Source: US20250171437A1 (Agios Pharmaceuticals,Inc., priority 2022, published 2025)

Target: T1, human PAH with the R408W mutation (A375 R408W cells) (Homo sapiens, UniProt P00439, R408W)
T1 construct: expressed in transfected cells
T1 sequence (P00439 1-452 R408W): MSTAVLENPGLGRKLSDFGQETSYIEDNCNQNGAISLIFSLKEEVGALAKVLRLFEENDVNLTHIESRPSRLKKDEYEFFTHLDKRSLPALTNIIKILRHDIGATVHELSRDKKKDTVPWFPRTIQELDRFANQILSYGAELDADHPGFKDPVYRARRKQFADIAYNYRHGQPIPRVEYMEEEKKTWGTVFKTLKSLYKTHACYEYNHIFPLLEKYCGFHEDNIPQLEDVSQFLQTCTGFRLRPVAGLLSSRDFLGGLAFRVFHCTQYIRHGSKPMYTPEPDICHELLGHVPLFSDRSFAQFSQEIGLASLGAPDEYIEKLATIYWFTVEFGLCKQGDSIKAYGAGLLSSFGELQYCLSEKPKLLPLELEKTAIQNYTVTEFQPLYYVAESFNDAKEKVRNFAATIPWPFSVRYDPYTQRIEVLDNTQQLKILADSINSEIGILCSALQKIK
Experiment: Cell Based Phenylalanine Flux Assay
Conditions: A375 R408W cells; 24 hrs with compound, then 20 μM sepiapterin and 800 μM 13C9,15N-Phenylalanine for 4 hours; 13C-Tyrosine by LC-MS; average where tested multiple times
How it was run: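 A375 cells stably expressing lentiviral human PAH R408W were treated with compounds (10-point 2-fold dilutions, 0.5% DMSO, duplicate) for 24 h at 37 °C. Then 20 μM sepiapterin and 800 μM 13C9,15N-Phe were added for 4 h; media 13C-Tyr was measured by LC-MS to give AC50.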

SMILES	AC50 [µM]
CC(C)(O)c1nc(C(F)F)c(C(=O)N2CCc3[nH]cnc3[C@@H]2c2nc3cc(Cl)cc(F)c3o2)o1 [Example 606, (R)-(4-(5-chloro-7-fluorobenzo[d]oxazol-2-yl)-6,7-dihydro-1H-imidazo[4,5-c]pyridin-5(4H)-yl)(4-(difluoromethyl)-2-(2-hydroxypropan-2-yl)oxazol-5-yl)methanone]	≤ 0.5
CC(C)(O)c1nc(C(F)F)c(C(=O)N2CCc3[nH]cnc3[C@H]2c2nc3cc(F)cc(F)c3o2)o1 [Example 307, (S)-(4-(5,7-difluorobenzo[d]oxazol-2-yl)-6,7-dihydro-1H-imidazo[4,5-c]pyridin-5(4H)-yl)(4-(difluoromethyl)-2-(2-hydroxypropan-2-yl)oxazol-5-yl)methanone]	≤ 0.5
O=C(c1ocnc1C(F)(F)F)N1CCc2[nH]cnc2[C@@H]1c1nc2cccc(F)c2o1 [Example 172, (R)-(4-(7-fluorobenzo[d]oxazol-2-yl)-6,7-dihydro-1H-imidazo[4,5-c]pyridin-5(4H)-yl)(4-(trifluoromethyl)oxazol-5-yl)methanone]	≤ 0.5
COc1ccc2oc([C@@H]3c4nc[nH]c4CCN3C(=O)c3ocnc3C(F)F)nc2c1 [Example 341, (S)-(4-(difluoromethyl)oxazol-5-yl)(4-(5-methoxybenzo[d]oxazol-2-yl)-6,7-dihydro-1H-imidazo[4,5-c]pyridin-5(4H)-yl)methanone]	≤ 0.5
O=C(c1cnn2cc(N3CCC(O)CC3)ccc12)N1CCc2[nH]cnc2[C@H]1c1nc2c(F)ccc(F)c2o1 [Example 895, (S)-(4-(4,7-difluorobenzo[d]oxazol-2-yl)-6,7-dihydro-1H-imidazo[4,5-c]pyridin-5(4H)-yl)(6-(4-hydroxypiperidin-1-yl)pyrazolo[1,5-a]pyridin-3-yl)methanone]	1 to 5
Cc1ccc2oc([C@H]3c4nc[nH]c4CCN3C(=O)c3oc(-c4cn(C)cn4)nc3C(F)F)nc2c1 [Example 783, (R)-(4-(difluoromethyl)-2-(1-methyl-1H-imidazol-4-yl)oxazol-5-yl)(4-(5-methylbenzo[d]oxazol-2-yl)-6,7-dihydro-1H-imidazo[4,5-c]pyridin-5(4H)-yl)methanone]	≤ 0.5
COc1ccc(-c2nnc(C(=O)N3CCc4[nH]cnc4[C@@H]3c3nc4cc(C)ccc4o3)o2)nc1 [Example 678, (R)-(5-(5-methoxypyridin-2-yl)-1,3,4-oxadiazol-2-yl)(4-(5-methylbenzo[d]oxazol-2-yl)-6,7-dihydro-1H-imidazo[4,5-c]pyridin-5(4H)-yl)methanone]	1 to 5
O=C(c1ocnc1C(F)F)N1CCc2[nH]cnc2[C@@H]1c1nc2cc(F)cc(F)c2o1 [Example 310, (R)-(4-(5,7-difluorobenzo[d]oxazol-2-yl)-6,7-dihydro-1H-imidazo[4,5-c]pyridin-5(4H)-yl)(4-(difluoromethyl)oxazol-5-yl)methanone]	0.5 to 1
C[C@H](O)c1nc(C(F)F)c(C(=O)N2CCc3[nH]cnc3[C@H]2c2nc3c(F)cccc3o2)o1 [Example 227, (4-(difluoromethyl)-2-((S)-1-hydroxyethyl)oxazol-5-yl)((S)-4-(4-fluorobenzo[d]oxazol-2-yl)-6,7-dihydro-1H-imidazo[4,5-c]pyridin-5(4H)-yl)methanone]	≤ 0.5
O=C(c1nnc(-c2ccccn2)o1)N1CCc2[nH]cnc2[C@@H]1c1nc2ccccc2o1 [Example 584, (R)-(4-(benzo[d]oxazol-2-yl)-6,7-dihydro-1H-imidazo[4,5-c]pyridin-5(4H)-yl)(5-(pyridin-2-yl)-1,3,4-oxadiazol-2-yl)methanone]	1 to 5
CC1CN(C(=O)c2ocnc2C(F)F)[C@@H](c2nc3cccc(F)c3o2)c2nc[nH]c21 (single isomer, unassigned) [Example 805]	1 to 5
O=C(CCc1nccs1)N1CCc2[nH]cnc2[C@@H]1c1nc2c(F)cccc2o1 [Example 398, (R)-1-(4-(4-fluorobenzo[d]oxazol-2-yl)-6,7-dihydro-1H-imidazo[4,5-c]pyridin-5(4H)-yl)-3-(thiazol-2-yl)propan-1-one]	≥ 5
O=C(c1oc(-c2ccncc2)nc1C(F)F)N1CCc2[nH]cnc2[C@H]1c1nc2cccc(F)c2o1 [Example 560, (S)-(4-(difluoromethyl)-2-(pyridin-4-yl)oxazol-5-yl)(4-(7-fluorobenzo[d]oxazol-2-yl)-6,7-dihydro-1H-imidazo[4,5-c]pyridin-5(4H)-yl)methanone]	≤ 0.5
CC(C)(O)c1nc(C(F)F)c(C(=O)N2CCc3[nH]cnc3[C@H]2c2nc3ccc(F)cc3o2)o1 [Example 187, (S)-(4-(difluoromethyl)-2-(2-hydroxypropan-2-yl)oxazol-5-yl)(4-(6-fluorobenzo[d]oxazol-2-yl)-6,7-dihydro-1H-imidazo[4,5-c]pyridin-5(4H)-yl)methanone]	≤ 0.5
CC(F)(F)c1ncc(C(=O)N2CCc3[nH]cnc3[C@@H]2c2nc3cc(F)ccc3o2)s1 [Example 36, (R)-(2-(1,1-difluoroethyl)thiazol-5-yl)(4-(5-fluorobenzo[d]oxazol-2-yl)-6,7-dihydro-1H-imidazo[4,5-c]pyridin-5(4H)-yl)methanone]	1 to 5
O=C(c1ocnc1CF)N1CCc2[nH]cnc2[C@@H]1c1nc2cc(F)ccc2o1 [Example 180, (R)-(4-(5-fluorobenzo[d]oxazol-2-yl)-6,7-dihydro-1H-imidazo[4,5-c]pyridin-5(4H)-yl)(4-(fluoromethyl)oxazol-5-yl)methanone]	1 to 5
Cc1nc(C(C)(C)O)oc1C(=O)N1CCc2[nH]cnc2[C@H]1c1nc2c(F)cccc2o1 [Example 259, (S)-(4-(4-fluorobenzo[d]oxazol-2-yl)-6,7-dihydro-1H-imidazo[4,5-c]pyridin-5(4H)-yl)(2-(2-hydroxypropan-2-yl)-4-methyloxazol-5-yl)methanone]	0.5 to 1
O=C(c1nnc(C2CC2)o1)N1CCc2[nH]cnc2[C@H]1c1nc2cc(F)ccc2o1 [Example 15, (S)-(5-cyclopropyl-1,3,4-oxadiazol-2-yl)(4-(5-fluorobenzo[d]oxazol-2-yl)-6,7-dihydro-1H-imidazo[4,5-c]pyridin-5(4H)-yl)methanone]	0.5 to 1
Cc1ccc(F)c2nc([C@H]3c4nc[nH]c4CCN3C(=O)c3ocnc3C(F)F)oc12 [Example 744, (R)-(4-(difluoromethyl)oxazol-5-yl)(4-(4-fluoro-7-methylbenzo[d]oxazol-2-yl)-6,7-dihydro-1H-imidazo[4,5-c]pyridin-5(4H)-yl)methanone]	≤ 0.5
Cc1ccc2oc([C@H]3c4nc[nH]c4CCN3C(=O)c3nnc(-c4cnn(C)c4)o3)nc2c1 [Example 112, (R)-(5-(1-methyl-1H-pyrazol-4-yl)-1,3,4-oxadiazol-2-yl)(4-(5-methylbenzo[d]oxazol-2-yl)-6,7-dihydro-1H-imidazo[4,5-c]pyridin-5(4H)-yl)methanone]	1 to 5
Cc1cccc2oc([C@@H]3c4nc[nH]c4CCN3C(=O)c3nnc(-c4cnn(C)c4)o3)nc12 [Example 480, (S)-(5-(1-methyl-1H-pyrazol-4-yl)-1,3,4-oxadiazol-2-yl)(4-(4-methylbenzo[d]oxazol-2-yl)-6,7-dihydro-1H-imidazo[4,5-c]pyridin-5(4H)-yl)methanone]	≤ 0.5
O=C(c1ocnc1C(F)F)N1CCc2[nH]cnc2[C@@H]1c1nc2cc(F)ccc2o1 [Example 52, (R)-(4-(difluoromethyl)oxazol-5-yl)(4-(5-fluorobenzo[d]oxazol-2-yl)-6,7-dihydro-1H-imidazo[4,5-c]pyridin-5(4H)-yl)methanone]	0.5 to 1
O=C(c1oc(-c2cccnc2)nc1C(F)F)N1CCc2[nH]cnc2[C@@H]1c1nc2cccc(F)c2o1 [Example 589, (R)-(4-(difluoromethyl)-2-(pyridin-3-yl)oxazol-5-yl)(4-(7-fluorobenzo[d]oxazol-2-yl)-6,7-dihydro-1H-imidazo[4,5-c]pyridin-5(4H)-yl)methanone]	≤ 0.5
O=C(c1nnc(-c2ccc(C(F)(F)F)cc2)o1)N1CCc2[nH]cnc2[C@H]1c1nc2cc(F)ccc2o1 [Example 90, (S)-(4-(5-fluorobenzo[d]oxazol-2-yl)-6,7-dihydro-1H-imidazo[4,5-c]pyridin-5(4H)-yl)(5-(4-(trifluoromethyl)phenyl)-1,3,4-oxadiazol-2-yl)methanone]	0.5 to 1

Same assay, conditions: A375 cells expressing R408W PAH; 24 hrs with compound, then 20 μM sepiapterin and 800 μM 13C9,15N-Phenylalanine for 4 hours; 13C-Tyrosine by LC-MS; average where tested multiple times

SMILES	AC50 [µM]
COc1cccc2nc(C3c4nc[nH]c4CCN3C(=O)c3ccnn3-c3ccccn3)oc12 (centres unmarked)	1 to 5
COC(=O)Nc1ccc2c(C(=O)N3CCc4[nH]cnc4C3c3nc4cc(F)ccc4o3)cnn2c1 (centres unmarked)	1 to 5
N#Cc1ccc2c(C(=O)N3CCc4[nH]cnc4C3c3nc4cc(F)ccc4o3)cnn2c1 (centres unmarked)	1 to 5
O=C(c1cnco1)N1CCc2[nH]cnc2C1c1nc2cc(F)ccc2o1 (centres unmarked)	1 to 5
Nc1cc2c(C(=O)N3CCc4[nH]cnc4C3c3nc4cc(F)ccc4o3)cnn2cc1F (centres unmarked)	1 to 5
O=C(CCc1cnco1)N1CCc2[nH]cnc2C1c1nc2cc(F)ccc2o1 (centres unmarked)	1 to 5
COCCNc1ccc2c(C(=O)N3CCc4[nH]cnc4C3c3nc4cc(F)ccc4o3)cnn2c1 (centres unmarked)	1 to 5
Cc1cccc2nc([C@H]3c4nc[nH]c4CCN3C(=O)c3cnc(C(C)(C)O)o3)oc12 (single isomer, unassigned)	≥ 5
